Assay results published in patent publication US6399628B1, “N-(aryl/heteroaryl) amino acid esters, pharmaceutical compositions comprising same, and methods for inhibiting alpha- amyloid peptide release and/or its synthesis by use of such compounds” (Athena Neurosciences, Inc., priority 1996, dated 2002).

Work on CCOC(=O)C(CC)Nc1ccc2ccccc2c1 (stereo not shown) [Example 39, 2-[N-(naphth-2-yl)amino]butanoic acid ethyl ester] yielded a melting point of 81 to 83 °C.
